Data from ChEMBL document CHEMBL1154010, “Aziridine alkaloids as potential therapeutic agents” (Eur J Med Chem, 2009).
Converted amounts (≈) assume the structure as drawn.

Legend:
HCT-116 = assay: Cytotoxicity against human HCT116 cells; assay type: functional, cell-based
L1210 = assay: Cytotoxicity against mouse L1210 cells; assay type: functional, cell-based
HL-60 = assay: Cytotoxicity against human HL60 cells; assay type: functional, cell-based
Mus musculus = assay: Toxicity in ip dosed ddY mouse bearing mouse S180 cells; assay type: organism-based, CCRF S-180; settings: in vivo
CCRF S-180 [1] = assay: Antitumor activity against mouse S180 cells implanted in ip dosed ddY mouse assessed as tumor volume after 7 days; assay type: functional
[2] = target: Procathepsin L (Homo sapiens) (UniProt P07711); assay: Inhibition of cathepsin L
Chain of Procathepsin L (Homo sapiens) (P07711 114-333 limits assumed): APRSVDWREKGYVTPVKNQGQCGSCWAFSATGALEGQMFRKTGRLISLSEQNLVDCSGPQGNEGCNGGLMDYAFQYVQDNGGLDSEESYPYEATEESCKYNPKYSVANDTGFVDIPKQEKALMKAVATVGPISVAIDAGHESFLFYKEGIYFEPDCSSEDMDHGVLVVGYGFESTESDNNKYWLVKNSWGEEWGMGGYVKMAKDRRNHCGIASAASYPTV

Cathepsin B = Cathepsin B (Homo sapiens, UniProt P07858); assay: Inhibition of cathepsin B
[3] = Inhibition of trypsin
[4] = Inhibition of Pepsin
CCRF S-180 [5] = assay: Antitumor activity against mouse S180 cells xenografted in rat; assay type: functional
[6] = Antitumor activity against mouse EAC cells xenografted in rat; assay type: functional, Ehrlich
L5178Y = assay: Cytotoxicity against mouse L5178Y cells; assay type: functional, cell-based
[7] = Antitumor activity against mouse mammary cancer cell implanted in C3H/An mouse assessed as inhibition of tumor growth at 0.5 mg/day for 14 days; assay type: functional, Cancer cell lines
Bacillus anthracis = assay: Antimicrobial activity against Bacillus anthracis; assay type: functional
Bacillus cereus = assay: Antimicrobial activity against Bacillus cereus ATCC 10702; assay type: functional
Bacillus subtilis [8] = assay: Antimicrobial activity against Bacillus subtilis NRRL B-558; assay type: functional
Bacillus subtilis [9] = assay: Antimicrobial activity against Bacillus subtilis PCI 219; assay type: functional
Corynebacterium bovis = assay: Antimicrobial activity against Corynebacterium bovis 1810; assay type: functional
Escherichia coli [10] = assay: Antimicrobial activity against Escherichia coli K-12; assay type: functional
Escherichia coli [11] = assay: Antimicrobial activity against Escherichia coli K-12 MLI629; assay type: functional
Escherichia coli [12] = assay: Antimicrobial activity against Escherichia coli BEM11; assay type: functional
Escherichia coli [13] = assay: Antimicrobial activity against Escherichia coli BE1126; assay type: functional
Escherichia coli [14] = assay: Antimicrobial activity against Escherichia coli BE1186; assay type: functional
Klebsiella pneumoniae = assay: Antimicrobial activity against Klebsiella pneumoniae PCI602; assay type: functional
Proteus vulgaris = assay: Antimicrobial activity against Proteus vulgaris OX19; assay type: functional
Proteus mirabilis = assay: Antimicrobial activity against Proteus mirabilis IFM OM-9; assay type: functional
Providencia rettgeri [15] = assay: Antimicrobial activity against Providencia rettgeri GN311; assay type: functional
Providencia rettgeri [16] = assay: Antimicrobial activity against Providencia rettgeri GN466; assay type: functional
Pseudomonas aeruginosa [17] = assay: Antimicrobial activity against Pseudomonas aeruginosa A3; assay type: functional
Pseudomonas aeruginosa [18] = assay: Antimicrobial activity against Pseudomonas aeruginosa GN315; assay type: functional
Staphylococcus aureus [19] = assay: Antimicrobial activity against Staphylococcus aureus FDA209P; assay type: functional
Staphylococcus aureus [20] = assay: Antimicrobial activity against Staphylococcus aureus Smith; assay type: functional
Staphylococcus aureus [21] = assay: Antimicrobial activity against methicillin-resistant Staphylococcus aureus isolate 5; assay type: functional
Staphylococcus aureus [22] = assay: Antimicrobial activity against methicillin-resistant Staphylococcus aureus isolate 17; assay type: functional
Micrococcus luteus [23] = assay: Antimicrobial activity against Micrococcus luteus IFO 3333; assay type: functional
Micrococcus luteus [24] = assay: Antimicrobial activity against Micrococcus luteus PCI 1001; assay type: functional
[25] = tested on: Salmonella enterica subsp. enterica; assay: Antimicrobial activity against Salmonella typhi T-63; assay type: functional, Salmonella enterica subsp. enterica serovar Typhi
[26] = tested on: Salmonella enterica subsp. enterica; assay: Antimicrobial activity against Salmonella enteritidis 1891; assay type: functional, Salmonella enterica subsp. enterica serovar Enteritidis
Shigella dysenteriae = assay: Antimicrobial activity against Shigella dysenteriae JS1 1910; assay type: functional
Shigella flexneri = assay: Antimicrobial activity against Shigella flexneri 4bJS11811; assay type: functional
[27] = tested on: Salmonella enterica subsp. enterica; assay: Antimicrobial activity against Salmonella typhi JS11746; assay type: functional, Salmonella enterica subsp. enterica serovar Typhi
Staphylococcus aureus [28] = assay: Antimicrobial activity against Staphylococcus aureus MS9610; assay type: functional
Micrococcus luteus [29] = assay: Antimicrobial activity against Micrococcus luteus FDA16; assay type: functional
Escherichia coli [30] = assay: Antimicrobial activity against Escherichia coli NIHJ; assay type: functional
[31] = tested on: Mycolicibacterium smegmatis; assay: Antimicrobial activity against Mycobacterium smegmatis ATCC 607; assay type: functional
Mycolicibacterium vaccae = assay: Antimicrobial activity against Mycobacterium vaccae ATCC 15483; assay type: functional
[32] = tested on: Mycolicibacterium smegmatis; assay: Antimicrobial activity against rifamycin-resistant Mycobacterium smegmatis ATCC 607; assay type: functional
KB = assay: Cytotoxicity against human KB cells; assay type: functional, cell-based
LoVo = assay: Cytotoxicity against human LoVo cells; assay type: functional, cell-based

Compound: CC(=O)O[C@H]1C(=O)[C@@]2(C)C([C@H](OC(=O)c3ccccc3)[C@]3(O)C[C@H](OC(=O)[C@@H](O)[C@H](CC(=O)c4ccccc4)c4ccco4)C(C)=C1C3(C)C)[C@]1(OC(=O)N3CC3)CO[C@@H]1C[C@@H]2O (stereo partly drawn)
- IC50 (HCT-116): 6.9 nM

Compound: NCCCNCCCCN1CC1
- IC50 (L1210): 310 nM
- IC50 (HL-60): 300 nM

Compound: COC1=C(C)C(=O)C2=C(C1=O)[C@@H](COC(N)=O)[C@@]1(OC)[C@@H]3[C@H](CN21)N3C (stereo partly drawn) [N-METHYL-MITOMYCIN A]
- LD50 (Mus musculus): 5 µg/mL
- ED50 (CCRF S-180 [1]): 1.3 µg/mL (≈ 3.58 µM)

Compound: CC[C@H](NC(=O)C[C@H](O)[C@H](CC(C)C)NC(=O)[C@H](CC(C)C)NC(=O)[C@@H]1N[C@H]1C(=O)O)C(=O)N[C@H](/C=C/C(=O)O)CCCN=C(N)N [MIRAZIRIDINE A]
- INH [2]: 1 ×10⁶ /M/s
- IC50 (Cathepsin B): 2090 nM
- INH (Cathepsin B): 1.5 ×10⁴ /M/s
- INH [3]: 6 ×10⁻⁵ M
- INH [4]: 1.4 ×10⁻⁸ M

Compound: NCCCCNCCCN1CC1
- IC50 (L1210): 150 nM
- IC50 (HL-60): 110 nM

Compound: CC1(C)CC(CCC(=O)ONP(=O)(N2CC2(C)C)N2CC2(C)C)CC(C)(C)N1O (stereo not drawn)
- Activity (CCRF S-180 [5]): 93%
- Activity [6]: 90%

Compound: COC1=C(C)C(=O)C2=C(C1=O)[C@H](COC(N)=O)[C@@]1(O)[C@@H]3[C@H](CN21)N3C (stereo partly drawn) [MITOMYCIN B]
- LD50 (Mus musculus): 4.5 µg/mL
- ED50 (CCRF S-180 [1]): 2.5 µg/mL (≈ 7.16 µM)

Compound: COC1=C(C)C(=O)C2=C(C1=O)[C@@H](COC(N)=O)[C@@]1(OC)[C@H]3N[C@H]3CN21 [MITOMYCIN A]
- LD50 (Mus musculus): 2.1 µg/mL
- ED50 (CCRF S-180 [1]): 1.1 µg/mL (≈ 3.15 µM)

Compound: C=C1C2=C(C(=O)C(C)=C(N)C2=O)N2C[C@H]3[C@H](N3C)[C@]12O (stereo partly drawn) [MITOMYCIN Z]
- LD50 (Mus musculus): 210 µg/mL
- ED50 (CCRF S-180 [1]): 82 µg/mL (≈ 300 µM)

Compound: CC(=O)NC1CCn2c1nc1c2CC(C)=C(N2CC2)C1=O (stereo not drawn)
- IC50 (L5178Y): 4000 nM

Compound: CC(=O)[C@H]1C(N2CC2)C[C@H]2[C@@H]3CC=C4C[C@@H](O)CC[C@]4(C)[C@H]3CC[C@]12C (stereo partly drawn)
- inhibition (INH) [7]: 61%

Compound: CO[C@@]12[C@H](COC(N)=O)C3=C(C(=O)C(C)=C(N)C3=O)N1C[C@H]1[C@@H]2N1C (stereo partly drawn) [PORFIROMYCIN]
- LD50 (Mus musculus): 57 µg/mL
- ED50 (CCRF S-180 [1]): 22 µg/mL (≈ 63.2 µM)

Compound: COC(=O)[C@@H]1N=C1/C=C\CCCCCCCCC/C=C(/Cl)Br
- IC50 (HCT-116): 13600 nM

Compound: COc1c(O)cc2c(OC)c3c(c(O)c2c1O)C(=O)CC1CC(O)(C2CN2C)CC(=O)C31O (stereo not drawn) [AZICEMICIN A]
- MIC (Bacillus anthracis): 100 µg/mL (≈ 218 µM)
- MIC (Bacillus cereus): > 100 µg/mL
- MIC (Bacillus subtilis [8]): > 100 µg/mL
- MIC (Bacillus subtilis [9]): > 100 µg/mL
- MIC (Corynebacterium bovis): 25 µg/mL (≈ 54.4 µM)
- MIC (Escherichia coli [10]): > 100 µg/mL
- MIC (Escherichia coli [11]): > 100 µg/mL
- MIC (Escherichia coli [12]): 100 µg/mL (≈ 218 µM)
- MIC (Escherichia coli [13]): 100 µg/mL (≈ 218 µM)
- MIC (Escherichia coli [14]): 100 µg/mL (≈ 218 µM)
- MIC (Klebsiella pneumoniae): 100 µg/mL (≈ 218 µM)
- MIC (Proteus vulgaris): > 100 µg/mL
- MIC (Proteus mirabilis): > 100 µg/mL
- MIC (Providencia rettgeri [15]): > 100 µg/mL
- MIC (Providencia rettgeri [16]): > 100 µg/mL
- MIC (Pseudomonas aeruginosa [17]): > 50 µg/mL
- MIC (Pseudomonas aeruginosa [18]): > 100 µg/mL
- MIC (Staphylococcus aureus [19]): > 100 µg/mL
- MIC (Staphylococcus aureus [20]): > 100 µg/mL
- MIC (Staphylococcus aureus [21]): > 100 µg/mL
- MIC (Staphylococcus aureus [22]): > 100 µg/mL
- MIC (Micrococcus luteus [23]): 12.5 µg/mL (≈ 27.2 µM)
- MIC (Micrococcus luteus [24]): 12.5 µg/mL (≈ 27.2 µM)
- MIC [25]: 100 µg/mL (≈ 218 µM)
- MIC [26]: 100 µg/mL (≈ 218 µM)
- MIC (Shigella dysenteriae): 100 µg/mL (≈ 218 µM)
- MIC (Shigella flexneri): 50 µg/mL (≈ 109 µM)
- MIC [27]: 100 µg/mL (≈ 218 µM)
- MIC (Staphylococcus aureus [28]): > 100 µg/mL
- MIC (Micrococcus luteus [29]): 50 µg/mL (≈ 109 µM)
- MIC (Escherichia coli [30]): 50 µg/mL (≈ 109 µM)
- MIC [31]: 50 µg/mL (≈ 109 µM)
- MIC (Mycolicibacterium vaccae): 50 µg/mL (≈ 109 µM)
- MIC [32]: 50 µg/mL (≈ 109 µM)

Compound: CC1(C)CC(C(=O)ONP(=O)(N2CC2)N2CC2)CC(C)(C)N1O
- Activity (CCRF S-180 [5]): 93%
- Activity [6]: 90%

Compound: C/C(=C\c1csc(C)n1)[C@@H]1C[C@H]2[C@@H](CCC[C@H](C)[C@H](O)[C@@H](C)C(=O)C(C)(C)[C@@H](O)CC(=O)O1)N2CCO (stereo partly drawn)
- IC50 (KB): 4.3 nM

Compound: CC(=O)[C@]1(O)Cc2c(O)c3c(c(O)c2[C@@H](OC2C[C@H](N4CC4)[C@H](OS(C)(=O)=O)[C@H](C)O2)C1)C(=O)c1ccccc1C3=O (stereo partly drawn)
- IC50 (LoVo): 0.0027 µg/mL (≈ 0.00449 µM)

Compound: C=C1C2=C(C(=O)C(C)=C(OC)C2=O)N2C[C@H]3[C@H](N3C)[C@]12OC (stereo partly drawn) [MITOMYCIN G]
- LD50 (Mus musculus): 130 µg/mL
- ED50 (CCRF S-180 [1]): 100 µg/mL (≈ 331 µM)

Compound: COC1=C(C)C(=O)C2=C(C1=O)[C@@H](COC(N)=O)[C@@]1(O)[C@H]3N[C@H]3CN21 [9A-DEMETHYLMITOMYCIN A]
- LD50 (Mus musculus): 7.5 µg/mL
- ED50 (CCRF S-180 [1]): 4.9 µg/mL (≈ 14.6 µM)

Compound: COC(=O)[C@@H]1N=C1/C=C/CCCCCCCCC/C=C(/Cl)Br
- IC50 (HCT-116): 15200 nM
